The values below come from US9504669B2, “Spliceostatin analogs and methods for their preparation” (PFIZER INC., priority 2012, dated 2016).

Where two headings read alike, the source gives them in different places.

Experiment [1] relates to MDA-MB-468 cells (target non-expressing). Put plainly: In vitro cell assay (MTS cell viability), MDA-MB-468. The settings on record: Homo sapiens. Type of experiment: cell-based. How it is done:
Target expressing (BT474 (breast cancer), N87 (gastric cancer), HCC1954 (breast cancer), MDA-MB-361-DYT2 (breast cancer)) or non-expressing (MDA-MB-468) cells were seeded in 96-well cell culture plates for 24 hours before treatment. Cells were treated with 3-fold serially diluted antibody-drug conjugates or free compounds (i.e., no antibody conjugated to the drug) in duplicate at 10 concentrations. Cell viability was determined by CellTiter 96® AQueous One Solution Cell Proliferation MTS Assay (Promega, Madison Wis.) 96 hours after treatment. Relative cell viability was determined as percentage of untreated control. IC50 values were calculated using a four parameter logistic model #203 with XLfit v4.2 (IDBS, Guildford, Surry, UK). The potency ranged upward from 0.0002 nm. Similar procedures and techniques were employed.

The subject of experiment [2] is BT474 (breast cancer) cells. Kind of experiment: In vitro cell assay (MTS cell viability), BT474. It counts as cell-based. The settings on record: Homo sapiens, BT-474; free compounds (natural products and synthetic analogs); cell viability 96 hours after treatment. In outline: (§1)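 Cells seeded 24 h, then treated with antibody-drug conjugates or free drug, 3-fold serial dilutions at 10 concentrations in duplicate. Viability by MTS at 96 h as percent of untreated control; IC50 from four-parameter logistic fit.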

Experiment [3] has as its system N87 (gastric cancer) cells. Kind of experiment: In vitro cell assay (MTS cell viability), N87. It counts as cell-based. The settings on record: free compounds (natural products and synthetic analogs), cell viability 96 hours after treatment. In outline: as §1
Experiment [4] concerns MDA-MB-361-DYT2 (breast cancer) cells. Put plainly: In vitro cell assay (MTS cell viability), MDA-MB-361-DYT2. It counts as cell-based. The settings on record: free compounds (natural products and synthetic analogs), cell viability 96 hours after treatment. In outline:
as §1

In a further experiment the test system is xenograft tumor models. The settings on record: Journal of Antibiotics (1996), 49(12), 1204-1211; cited from earlier work.
The next experiment concerns human cancer cell lines. The settings on record: Journal of Antibiotics (1996), 49(12), 1204-1211; cited from earlier work.
Experiment [5] deals with spliceosome (SF3b, component of the subcomplex U2 snRNA). The settings on record: Nature Chemical Biology (2007), 3(9), 576-583; Nature (2010), 468(7324), 664-668; cited from earlier work.
[6] abbreviates: MDA-MB-468, 96 h, read-out: MDA-MB-468 IC50 (nM).

Broadly, the IC50 is the concentration that inhibits the measured activity by half. As for `CC(=O)O[C@@H](C)/C=C\C(=O)N[C@@H]1C[C@H](C)[C@H](C/C=C(C)/C=C/[C@H]2O[C@H](CC(=O)NN)C[C@@]3(CO3)[C@@H]2O)O[C@@H]1C` [#B6, (2S,3Z)-5-{[(2R,3R,5S,6S)-6-{(2E,4E)-5-[(3R,4R,5R,7S)-7-(2-hydrazinyl-2-oxoethyl)-4-hydroxy-1,6-dioxaspiro[2.5]oct-5-yl]-3-methylpenta-2,4-dien-1-yl}-2,5-dimethyltetrahydro-2H-pyran-3-yl]amino}-5-oxopent-3-en-2-yl acetate], the IC50 was found to be 7.97 nM in experiment [1] (setting [6]), 16.5 nM in experiment [2], 5.66 nM in experiment [3] (96 h) and 25.4 nM in experiment [4] (96 h).

Take `CC(=O)O[C@@H](C)/C=C\C(=O)N[C@@H]1C[C@H](C)[C@H](C/C=C(C)/C=C/[C@@H]2C[C@]3(CO3)C[C@@H](CC(N)=O)O2)O[C@@H]1C` [#B15, (2S,3Z)-5-{[(2R,3R,5S,6S)-6-{(2E,4E)-5-[(3S,5S,7S)-7-(2-amino-2-oxoethyl)-1,6-dioxaspiro[2.5]oct-5-yl]-3-methylpenta-2,4-dien-1-yl}-2,5-dimethyltetrahydro-2H-pyran-3-yl]amino}-5-oxopent-3-en-2-yl acetate]: the IC50 in experiment [1] (setting [6]) came to 0.363 nM; in experiment [2], 0.522 nM; in experiment [3] (96 h), 0.203 nM; in experiment [4] (96 h), 0.537 nM.

Consider `CC(/C=C/[C@@H]1C[C@]2(CO2)C[C@@H](CC(=O)O)O1)=C\C[C@@H]1O[C@H](C)[C@H](NC(=O)/C=C\[C@H](C)O)C[C@@H]1C` [#B16, [(3S,5S,7S)-7-{(1E,3E)-5-[(2S,3S,5R,6R)-5-{[(2Z,4S)-4-hydroxypent-2-enoyl]amino}-3,6-dimethyltetrahydro-2H-pyran-2-yl]-3-methylpenta-1,3-dien-1-yl}-1,6-dioxaspiro[2.5]oct-5-yl]acetic acid], for which the IC50 in experiment [1] (setting [6]) is 36.8 nM; in experiment [2], 76.1 nM; in experiment [3] (96 h), 16.8 nM; in experiment [4] (96 h) it was greater than 100 nM.

For `CCCNC(=O)C[C@@H]1C[C@@]2(CO2)[C@H](O)[C@@H](/C=C/C(C)=C/C[C@@H]2O[C@H](C)[C@H](NC(=O)/C=C\[C@H](C)OC(C)=O)C[C@@H]2C)O1` [#B63, (2S,3Z)-5-({(2R,3R,5S,6S)-6-[(2E,4E)-5-{(3R,4R,5R,7S)-4-hydroxy-7-[2-oxo-2-(propylamino)ethyl]-1,6-dioxaspiro[2.5]oct-5-yl}-3-methylpenta-2,4-dien-1-yl]-2,5-dimethyltetrahydro-2H-pyran-3-yl}amino)-5-oxopent-3-en-2-yl acetate], the IC50 in experiment [1] (setting [6]) is 0.348 nM; in experiment [2], 0.651 nM; in experiment [3] (96 h), 1.1 nM; in experiment [4] (96 h), 0.293 nM.

Take `CC(=O)O[C@@H](C)/C=C\C(=O)N[C@@H]1C[C@H](C)[C@H](C/C=C(C)/C=C/[C@H]2O[C@H](CC(=O)N[C@H]3C[C@H](N)C3)C[C@@]3(CO3)[C@@H]2O)O[C@@H]1C` [#B73, (2S,3Z)-5-{[(2R,3R,5S,6S)-6-{(2E,4E)-5-[(3R,4R,5R,7S)-7-{2-[(trans-3-aminocyclobutyl)amino]-2-oxoethyl}-4-hydroxy-1,6-dioxaspiro[2.5]oct-5-yl]-3-methylpenta-2,4-dien-1-yl}-2,5-dimethyltetrahydro-2H-pyran-3-yl]amino}-5-oxopent-3-en-2-yl acetate]: the IC50 is 276 nM in experiment [1] (setting [6]), 296 nM in experiment [2], 174 nM in experiment [3] (96 h) and 443 nM in experiment [4] (96 h).

For the compound `CC(=O)O[C@@H](C)/C=C\C(=O)N[C@@H]1C[C@H](C)[C@H](C/C=C(C)/C=C/[C@H]2O[C@H](CC(=O)N[C@H]3CC[C@H](N)CC3)C[C@@]3(CO3)[C@@H]2O)O[C@@H]1C` [#B76, (2S,3Z)-5-{[(2R,3R,5S,6S)-6-{(2E,4E)-5-[(3R,4R,5R,7S)-7-{2-[(trans-4-aminocyclohexyl)amino]-2-oxoethyl}-4-hydroxy-1,6-dioxaspiro[2.5]oct-5-yl]-3-methylpenta-2,4-dien-1-yl}-2,5-dimethyltetrahydro-2H-pyran-3-yl]amino}-5-oxopent-3-en-2-yl acetate], the IC50 came out at 272 nM in experiment [1] (setting [6]), 341 nM in experiment [2], 331 nM in experiment [3] (96 h) and 885 nM in experiment [4] (96 h).

As for `CCCNC(=O)C(C)(C)NC(=O)C[C@@H]1C[C@@]2(CO2)[C@H](O)[C@@H](/C=C/C(C)=C/C[C@@H]2O[C@H](C)[C@H](NC(=O)/C=C\[C@H](C)OC(C)=O)C[C@@H]2C)O1` [#B81, (2S,3Z)-5-{[(2R,3R,5S,6S)-6-{(2E,4E)-5-[(3R,4R,5R,7S)-4-hydroxy-7-(2-{[2-methyl-1-oxo-1-(propylamino)propan-2-yl]amino}-2-oxoethyl)-1,6-dioxaspiro[2.5]oct-5-yl]-3-methylpenta-2,4-dien-1-yl}-2,5-dimethyltetrahydro-2H-pyran-3-yl]amino}-5-oxopent-3-en-2-yl acetate], the IC50 was greater than 100 nM in experiment [1] (setting [6]), greater than 100 nM in experiment [2], 70.7 nM in experiment [3] (96 h) and greater than 100 nM in experiment [4] (96 h).

For the compound `COC(=O)C[C@@H]1C[C@@]2(CO2)C[C@@H](/C=C/C(C)=C/C[C@@H]2O[C@H](C)[C@H](NC(=O)/C=C\[C@H](C)O)C[C@@H]2C)O1` [#B148, methyl [(3S,5S,7S)-7-{(1E,3E)-5-[(2S,3S,5R,6R)-5-{[(2Z,4S)-4-hydroxypent-2-enoyl]amino}-3,6-dimethyltetrahydro-2H-pyran-2-yl]-3-methylpenta-1,3-dien-1-yl}-1,6-dioxaspiro[2.5]oct-5-yl]acetate], the IC50 in experiment [1] (setting [6]) is 64.4 nM; in experiment [2], 40.8 nM; in experiment [3] (96 h), 47.4 nM; in experiment [4] (96 h), greater than 100 nM.

On to `CCCC(=O)NC[C@@H]1C[C@@]2(CO2)C[C@@H](/C=C/C(C)=C/C[C@@H]2O[C@H](C)[C@H](NC(=O)/C=C\[C@H](C)OC(C)=O)C[C@@H]2C)O1` [#B173, (2S,3Z)-5-({(2R,3R,5S,6S)-6-[(2E,4E)-5-{(3R,5S,7S)-7-[(butanoylamino)methyl]-1,6-dioxaspiro[2.5]oct-5-yl}-3-methylpenta-2,4-dien-1-yl]-2,5-dimethyltetrahydro-2H-pyran-3-yl}amino)-5-oxopent-3-en-2-yl acetate], for which the IC50 in experiment [1] (setting [6]) was 7.85 nM; in experiment [2] it was 3.64 nM; in experiment [3] (96 h) it was 6.38 nM; in experiment [4] (96 h) it was 29.1 nM.

For the compound `CC(=O)O[C@@H](C)/C=C\C(=O)N[C@@H]1C[C@H](C)[C@H](C/C=C(C)/C=C/[C@H]2O[C@H](CC(=O)O)C[C@@]3(CO3)[C@@H]2O)O[C@@H]1C` [#NP1, [(3R,5S,7R,8R)-7-{(1E,3E)-5-[(2S,3S,5R,6R)-5-{[(2Z,4S)-4-(acetyloxy)pent-2-enoyl]amino}-3,6-dimethyltetrahydro-2H-pyran-2-yl]-3-methylpenta-1,3-dien-1-yl}-8-hydroxy-1,6-dioxaspiro[2.5]oct-5-yl]acetic Acid], the 50% inhibitory concentration (IC50) in experiment [1] (setting [6]) was found to be 142 nM; in experiment [2], 145 nM; in experiment [3] (96 h), 61.6 nM; in experiment [4] (96 h), 160 nM.

As for `CC(=O)O[C@@H](C)/C=C\C(=O)N[C@@H]1C[C@H](C)[C@H](C/C=C(C)/C=C/[C@@H]2C[C@]3(CO3)C[C@@H](CC(=O)O)O2)O[C@@H]1C` [#NP2, [(3S,5S,7S)-7-{(1E,3E)-5-[(2S,3S,5R,6R)-5-{[(2Z,4S)-4-(acetyloxy)pent-2-enoyl]amino}-3,6-dimethyltetrahydro-2H-pyran-2-yl]-3-methylpenta-1,3-dien-1-yl}-1,6-dioxaspiro[2.5]oct-5-yl]acetic acid], the IC50 in experiment [1] (MDA-MB-468, free compounds (natural products and synthetic analogs), cell viability 96 hours after treatment, read-out: MDA-MB-468 IC50) was 3.39 nM; in experiment [2], 5.12 nM; in experiment [3] it was 2.51 nM; in experiment [4], 8.5 nM.

Take `CC(=O)O[C@@H](C)/C=C\C(=O)N[C@@H]1C[C@H](C)[C@H](C/C=C(C)/C=C/[C@@H]2CC(C)=CC(=O)O2)O[C@@H]1C` [#NP11, (2S,3Z)-5-{[(2R,3R,5S,6S)-2,5-dimethyl-6-{(2E,4E)-3-methyl-5-[(2S)-4-methyl-6-oxo-3,6-dihydro-2H-pyran-2-yl]penta-2,4-dien-1-yl}tetrahydro-2H-pyran-3-yl]amino}-5-oxopent-3-en-2-yl acetate]: the IC50 was 1.55 nM in experiment [1] (setting [6]), 3.72 nM in experiment [2], 3.67 nM in experiment [3] (96 h) and 4.16 nM in experiment [4] (96 h).

In the case of `CC(=O)O[C@@H](C)/C=C\C(=O)N[C@@H]1C[C@H](C)[C@H](C/C=C(C)/C=C/[C@H]2O[C@](C)(O)C[C@@](O)(CCl)[C@@H]2O)O[C@@H]1C` [FR901463], the “efficacies in xenograft tumor models” value in the experiment on xenograft tumor models is recorded as “efficacies in several xenograft tumor models”. Also, the “inhibitory activities against human cancer cell lines” value with human cancer cell lines is given as “potent inhibitory activities”.

For the compound `CO[C@]1(C)C[C@@]2(CO2)[C@H](O)[C@@H](/C=C/C(C)=C/C[C@@H]2O[C@H](C)[C@H](NC(=O)/C=C\[C@H](C)OC(C)=O)C[C@@H]2C)O1` [spliceostatin A], the “inhibition of the spliceosome” value in experiment [5] is listed as “inhibit the spliceosome by interaction with SF3b”.

Consider FR901465, for which the “efficacies in xenograft tumor models” value in the experiment with xenograft tumor models is on record as “efficacies in several xenograft tumor models”. For the same compound, in the experiment on human cancer cell lines, the “inhibitory activities against human cancer cell lines” value is given as “potent inhibitory activities”.
